Test results published in article PMC11530130, “Peripherally restricted PICK1 inhibitor mPD5 ameliorates pain behaviors in murine inflammatory and neuropathic pain models” (JCI Insight, 2024).
“And” between values parts separate entries of the source, which are not always exact repeats. Identical values can stand only once. Like-named read-outs stand apart in the source and are kept apart here.

Key:
[1] = biological target: human serum albumin (HSA) (Homo sapiens, UniProt P02768); assay: FIDA binding to human serum albumin
Method: Flow-induced dispersion analysis (FIDA).
FIDA was carried out using a fluorescently labelled (AF488-NHS) mPD5 analogue, and
(100 nM), using the standard protocol recommended by the manufacturer, in short, mPD5 and
sample was injected into the capillary followed by a buffer injection. The diffusion of the
curve smoothing. Resulting hydrodynamic radius was plotted using GraphPad Prism 8.3.

[2] = system: mice, spared nerve injury (SNI) model; assay: SNI model, von Frey, repeated s.c. administration on 2 consecutive days; type: in vivo, mouse; design: von Frey threshold, Fig 7A, individual mice: unit not given here
From the text: Repeated and sustained administration of mPD5 in the SNI model.
For the experiment with repeated administration of mPD5 (Figure 7A), male C57BL/6J (Janvier, France) mice underwent surgery leading to partial nerve injury, by cutting the peroneal and tibial nerves, producing hypersensitivity of the remaining sural nerve (SNI) as described in the “Induction of neuropathic pain (SNI model).”-section. On day 21 after surgery, hyperalgesia was confirmed by using von Frey filaments to induce mechanically evoked hypersensitivity and measure paw withdrawal threshold of the animals as described in the “Mechanically-evoked pain (von Frey).”-section. On the same day, mice were injected s.c. with 2, 10, or 50 μmol/kg mPD5 (10 μL/g) and evoked pain was tested again with the use of von Frey filaments at 1 and 5 hours after injection. 24 hours after the first injection, mice were injected s.c. with 2, 10, or 50 μmol/kg mPD5 (10 μL/g) again and evoked pain was tested with the use of von Frey filaments at 1, 5, and 24 hours after the second injection. […]

[3] = system: mice, spared nerve injury (SNI) model; type: in vivo, mouse; settings: for von Frey paw withdrawal threshold, ipsilateral paw (Fig 7F): SNI mice, 10 umol/kg, individual animals
Method: solution (0.05 mg/kg) injected s.c. 30 min before surgery (10 μL/g). For surgery, mice were anaesthetised with ketamine (100 mg/kg, i.p.) and xylazine (10 mg/kg, i.p.) (volume 10 µL/g) with 100 μL of 1% xylocaine solution infiltrated at the site of the incision. The distal trifurcation of the sciatic nerve was identified, and the tibial and common peroneal branches were ligated with polypropylene nonabsorbable 6-0 sutures (Ethicon) and 1 mm was cut out, leaving the sural branch intact. The wound was closed with sutures, and the animals were allowed to recover and returned to their cages. Two subcutaneous injections of buprenorphine (0.05 mg/kg) were performed with an 8 to 12 hours delay decreasing pain due to the surgery […]
The remaining SNI pain experiments were performed in-house using the following procedure.
SNI surgery was performed on the left hindleg of C57BL/6J male and female mice (Janvier, France) under 2% isoflurane anaesthesia. Skin on the lateral surface was incised between hip and knee followed by lengthwise division of the biceps femoris muscle leading to exposure of the three branches of the sciatic nerve. Sural branch was left intact, while the peroneal and tibial branches were ligated with a single surgical knot and axotomized distally of the ligation.
Wounds were closed with surgical glue or medical clips and animals were monitored daily for signs of stress or discomfort, but in all cases recovered uneventfully. […]
The skin wound was closed with two medical clips (Michel Suture Clips, 7.5x1.75 mm, Angthos, 12040-01). Post-surgical analgesia included s.c. injection of 5 mg/kg carprofen (Carprosan vet, 50 mg/mL mixed 1:25 in sterile ddH2O, Dechra, Le Vet Beheer B.V., Netherlands, Batch: 050520) right after surgery and the […]
following day. […]
The test battery of the CIBP model was carried out 45 or 90 min after morphine and mPD5 administration respectively to accommodate the peak efficacy […]
Mechanically evoked pain (von Frey test).
Unless otherwise specified, von Frey occurred as described in the following. Animals were habituated to the experimental room for a minimum of 60 min before initiation of the experiment. Mechanical paw withdrawal threshold (PWT) was determined by von Frey measurements of both hind paws. Von Frey filaments ranging from 0.04 to 2 g (g = gram- […]
Filaments in ascending order were applied to the frontocentral plantar surface of the hind paws.
Mice were placed in PVC plastic boxes (11.5 cm x 14 cm) on a wire mesh and allowed minimum 20 min habituation prior of experiment initiation. Each von Frey hair was applied five times with adequate resting periods between each application and number of withdrawals recorded. The withdrawal threshold was determined as the von Frey filament eliciting at least three positive trials out of the five applications in two consecutive filaments. A positive trial was defined as sudden paw withdrawal, flinching and/or paw licking induced by the filament.
For the CIBP model, two habituation sessions were performed on separated days with mice placed in the von Frey equipment for 1-1.5 hours in the presence of the experimenter on day one and random von Frey pocking with the 0.6 g filament on day two. Von Frey monofilaments (North Coast Touch Test, North Coast Medical, Inc.) with target forces of 0.04g, 0.07g, 0.16g, […]
down method” (PWT=10Xf+kδ) starting with the 0.6 g filament. Positive response was defined as; withdrawal, shaking or grooming of paw following a 2-3 second stimulation. In case, of unclear response, stimulus was repeated after 10-15 seconds.
For the STZ model, the mechanical threshold response of the injected mice was measured with […]
injection of test compounds on day 14, mechanical threshold was measured at 1 hour, 2 hours, 4 hours and 6 hours and again on day 15. […]
Thermally evoked pain (Hargreaves test).
A baseline Hargreaves test was performed on day 0 before inflammatory pain was induced as described in section 2.13. In the Hargreaves test, the mouse was placed in a container on a glass […]

human serum albumin (HSA), sequence (P02768 25-609): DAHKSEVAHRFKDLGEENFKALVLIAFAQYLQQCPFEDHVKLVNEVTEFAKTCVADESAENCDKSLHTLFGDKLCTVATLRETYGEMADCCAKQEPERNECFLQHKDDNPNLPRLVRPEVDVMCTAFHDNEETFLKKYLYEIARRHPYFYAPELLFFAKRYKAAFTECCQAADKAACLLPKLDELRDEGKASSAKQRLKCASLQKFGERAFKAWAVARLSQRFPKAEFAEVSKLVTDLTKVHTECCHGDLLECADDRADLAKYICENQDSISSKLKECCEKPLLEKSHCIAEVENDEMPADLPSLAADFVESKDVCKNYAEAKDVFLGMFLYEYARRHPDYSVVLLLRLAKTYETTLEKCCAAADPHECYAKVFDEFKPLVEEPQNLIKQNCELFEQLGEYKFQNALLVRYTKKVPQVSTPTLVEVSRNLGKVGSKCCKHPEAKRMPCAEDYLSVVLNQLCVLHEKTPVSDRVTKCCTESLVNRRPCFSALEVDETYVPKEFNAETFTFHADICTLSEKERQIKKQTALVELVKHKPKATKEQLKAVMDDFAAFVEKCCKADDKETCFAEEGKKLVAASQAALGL

CCCCCCCCCCCCCC(=O)N(CCOCCOCCC(=O)N[C@@H](Cc1c[nH]cn1)C(=O)N[C@@H](Cc1c[nH]c2ccccc12)C(=O)N[C@@H](CC(C)C)C(=O)N[C@@H](CCCCN)C(=O)N[C@H](C(=O)O)C(C)C)CCOCCOCCC(=O)N[C@@H](Cc1c[nH]cn1)C(=O)N[C@@H](Cc1c[nH]c2ccccc12)C(=O)N[C@@H](CC(C)C)C(=O)N[C@@H](CCCCN)C(=O)N[C@H](C(=O)O)C(C)C [mPD5, myristoyl-NPEG4-(HWLKV)2]
HSA species bound, from RH [1]: binds to dimeric HSA | von Frey threshold, contralateral paw, Fig 7A, individual mice ([2]; A_contra, hr 5 day2): 1.4 and 1 (3×) | von Frey threshold, contralateral paw, Fig 7A, individual mice ([2]; A_contra, hr23): 1 (3×) and 1.4 (4×) and 2 | von Frey threshold, contralateral paw, Fig 7A, individual mice ([2]; A_contra, hr1 day 1): 1.4 (6×) and 1 and 2 | von Frey threshold, contralateral paw, Fig 7A, individual mice ([2]; A_contra, hr 1 day 2): 1 (5×) and 1.4 (2×) and 2 | von Frey threshold, contralateral paw, Fig 7A, individual mice ([2]; A_contra, hr 5 day 1): 1.4 (6×) and 2 and 1 | von Frey threshold, contralateral paw, Fig 7A, individual mice ([2]; B_contra, hr23): 1.4 (4×) and 1 (3×) and 2 | von Frey threshold, contralateral paw, Fig 7A, individual mice ([2]; B_contra, hr1 day 1): 1.4 (5×) and 1 (3×) | von Frey threshold, contralateral paw, Fig 7A, individual mice ([2]; B_contra, hr 1 day 2): 1.4 (5×) and 1 (3×) | von Frey threshold, contralateral paw, Fig 7A, individual mice ([2]; B_contra, hr 5 day 1): 1.4 and 1 (2×) and 2 (5×) | von Frey threshold, contralateral paw, Fig 7A, individual mice ([2]; C_comtra, hr23): 2 and 1.4 (5×) and 1 (2×) | von Frey threshold, contralateral paw, Fig 7A, individual mice ([2]; C_comtra, hr1 day 1): 3 and 2 (2×) and 1 (2×) and 1.4 (3×) | von Frey threshold, contralateral paw, Fig 7A, individual mice ([2]; C_comtra, hr 1 day 2): 1 (2×) and 1.4 (4×) and 2 (2×) | von Frey threshold, contralateral paw, Fig 7A, individual mice ([2]; C_comtra, hr 5 day 1): 2 and 1 (4×) and 1.4 (3×) | relief of mechanical hypersensitivity ([2]; SNI 3 weeks after surgery, first day, s.c. 50 μmol/kg only, 5 hours): significant effect at 5 hours | relief of mechanical hypersensitivity ([2]; SNI 3 weeks after surgery, first day, s.c. 2, 10, 50 μmol/kg (all concentrations), 1 hour): significant effects at 1 hour | relief of mechanical hypersensitivity ([2]; SNI, next day (second injection), only 10 and 50 μmol/kg, 1 and 5 hours after administration): significant pain relief | development of tolerance ([2]; SNI, s.c. 2, 10, 50 μmol/kg on 2 consecutive days): do not indicate immediate development of tolerance | von Frey threshold, Fig 7A, individual mice ([2]; group 2, hr 5 day2): 0.07 and 0.16 (2×) | von Frey threshold, Fig 7A, individual mice ([2]; group 2, hr23): 0.07 (5×) and 0.16 (3×) | von Frey threshold, Fig 7A, individual mice ([2]; group 2, hr1 day 1): 0.16 and 1 (2×) and 0.6 (2×) and 1.4 and 0.4 (2×) | von Frey threshold, Fig 7A, individual mice ([2]; group 2, hr 1 day 2): 0.16 (3×) and 1 and 0.6 (3×) and 0.4 | von Frey threshold, Fig 7A, individual mice ([2]; group 2, hr 5 day 1): 0.07 (2×) and 0.4 (3×) and 0.16 (2×) and 0.6 | von Frey threshold, Fig 7A, individual mice ([2]; group 10, hr 5 day2): 1 | von Frey threshold, Fig 7A, individual mice ([2]; group 10, hr23): 0.16 (3×) and 0.4 (3×) and 0.07 (2×) | von Frey threshold, Fig 7A, individual mice ([2]; group 10, hr1 day 1): 1 (3×) and 2 (2×) and 0.4 and 1.4 and 0.6 | von Frey threshold, Fig 7A, individual mice ([2]; group 10, hr 1 day 2): 1 (3×) and 2 (2×) and 0.4 (2×) and 1.4 | von Frey threshold, Fig 7A, individual mice ([2]; group 10, hr 5 day 1): 0.16 and 2 and 1 (2×) and 0.07 and 0.4 (3×) | von Frey threshold, Fig 7A, individual mice ([2]; group 50, hr23): 0.16 (5×) and 0.07 (3×) | von Frey threshold, Fig 7A, individual mice ([2]; group 50, hr1 day 1): 1.4 (5×) and 1 and 0.6 and 0.16 | von Frey threshold, Fig 7A, individual mice ([2]; group 50, hr 1 day 2): 1 (4×) and 0.6 and 1.4 (2×) and 0.4 | von Frey threshold, Fig 7A, individual mice ([2]; group 50, hr 5 day 1): 0.6 (3×) and 1 and 0.4 (2×) and 0.16 (2×) | von Frey paw withdrawal threshold, ipsilateral paw (Fig 7F) ([3]; time point 8): 0.16 (5×) and 0.4 | von Frey paw withdrawal threshold, ipsilateral paw (Fig 7F) ([3]; time point 13): 0.16 (5×) and 0.07 | von Frey paw withdrawal threshold, ipsilateral paw (Fig 7F) ([3]; time point BL (baseline)): 1 (2×) and 1.4 (4×) | von Frey paw withdrawal threshold, ipsilateral paw (Fig 7F) ([3]; time point D12 (before dosing)): 0.16 (5×) and 0.07 | effect on mechanical hypersensitivity (PWT) ([3]; SNI, single s.c. administration, 8 hours after injection): no effect on mechanical hypersensitivity
